In patent US20260176285A1, “SALT OF DIOXANE QUINOLINE COMPOUND, CRYSTAL FORM THEREOF, PREPARATION METHODS THEREFOR AND USES THEREOF” (Beijing Scitech-MQ Pharmaceuticals Limited, priority 2022, published 2026):

Key:
[1] = Long-term stability study; type: physicochemical
Procedure: p-Toluenesulfonate salt crystal form A-II of the compound of formula (I) was placed at 25° C./60% RH for 6 months to investigate its long-term stability.

[2] = Equilibrium solubility in water; type: physicochemical; conditions: H2O, room temperature, 24 hours; listed as p-Toluenesulfonate salt crystal form A-II
Procedure: The sample was centrifuged and filtered, and the filtrate was tested by HPLC.

[3] = biological target: T1, RET (Homo sapiens, UniProt P07949); assay: Kinase activity, Mobility Shift Assay; type: biochemical
T1 construct: purchased Carna 08-159
T1 sequence (P07949 29-1114): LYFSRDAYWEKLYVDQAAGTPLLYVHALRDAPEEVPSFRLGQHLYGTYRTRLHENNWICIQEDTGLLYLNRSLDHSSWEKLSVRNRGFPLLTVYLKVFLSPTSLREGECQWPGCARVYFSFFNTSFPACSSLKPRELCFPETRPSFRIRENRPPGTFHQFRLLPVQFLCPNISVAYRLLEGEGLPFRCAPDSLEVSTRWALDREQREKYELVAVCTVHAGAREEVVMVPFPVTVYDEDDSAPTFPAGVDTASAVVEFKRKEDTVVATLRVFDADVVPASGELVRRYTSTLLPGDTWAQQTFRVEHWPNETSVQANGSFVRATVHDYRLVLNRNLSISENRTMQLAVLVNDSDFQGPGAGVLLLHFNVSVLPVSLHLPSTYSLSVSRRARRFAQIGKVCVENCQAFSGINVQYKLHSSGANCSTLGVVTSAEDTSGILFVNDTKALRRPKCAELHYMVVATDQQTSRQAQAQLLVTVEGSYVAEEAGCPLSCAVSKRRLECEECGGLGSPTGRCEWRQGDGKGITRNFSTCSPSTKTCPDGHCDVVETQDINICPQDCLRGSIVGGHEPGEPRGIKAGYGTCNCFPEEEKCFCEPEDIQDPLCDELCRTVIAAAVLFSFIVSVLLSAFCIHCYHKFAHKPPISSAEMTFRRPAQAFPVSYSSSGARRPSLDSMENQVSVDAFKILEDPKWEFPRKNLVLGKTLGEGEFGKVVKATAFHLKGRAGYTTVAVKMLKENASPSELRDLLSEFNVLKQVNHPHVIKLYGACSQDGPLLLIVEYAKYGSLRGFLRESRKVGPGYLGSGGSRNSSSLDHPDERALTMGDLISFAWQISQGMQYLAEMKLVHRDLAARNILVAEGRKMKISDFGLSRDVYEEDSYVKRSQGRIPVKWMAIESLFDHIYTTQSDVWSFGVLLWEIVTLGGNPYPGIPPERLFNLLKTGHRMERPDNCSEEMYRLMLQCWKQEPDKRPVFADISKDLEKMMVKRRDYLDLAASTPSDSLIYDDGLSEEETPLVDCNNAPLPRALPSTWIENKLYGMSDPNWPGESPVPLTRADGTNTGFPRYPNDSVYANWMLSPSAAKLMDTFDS
Procedure: (§1) The assay used the Mobility Shift Assay method. The starting concentration of the test substance was 2.5 μM, which was serially diluted 3-fold to give a total of 10 concentrations, in duplicate.
(§2) The p-toluenesulfonate salt of the free compound prepared in Example 2 was used as the test compound. The starting concentration of the test was 2.5 μM, and the concentration was prepared to 50 times, that is, 125 μM. 158 μl of 100% DMSO was added to the second well of a 96-well plate, and then 2 μl of 10 mM compound solution was added to prepare a 125 μM compound solution. 60 μl of 100% DMSO was added to the other wells. 30 μl of the compound was taken out from the second well and added to the third well, and the 3-fold dilution was made successively to give a total of 10 dilutions. Dilution instrument: automatic microwell pipette (Precision PRC384U)
(§3) • (1) 10 μl was taken out from each well of the 96-well plate with 50-fold compound concentration and transferred to another 96-well plate. 90 μl of kinase buffer was added to prepare a 5-fold compound concentration. • (2) 5 μl was taken out from the 96-well plate with 5-fold compound concentration and transferred to a 384-well reaction plate. For example, the compound in well A1 of the 96-well plate was transferred to wells A1 and A2 of the 384-well plate, the compound in well A2 of the 96-well plate was transferred to wells A3 and A4 of the 384-well plate, and so on.
(§4) Kinase was added to 1× kinase buffer to make a 2.5 times enzyme solution.
(§5) • (1) 5 μl of 5× compound dissolved in 10% DMSO was already in the 384-well reaction plate. • (2) 10 μl of 2.5× enzyme solution was added to the 384-well reaction plate and 10 μl of kinase buffer was added to the negative control wells. • (3) Incubation at room temperature for 10 minutes.
(§6) FAM-labeled peptide and ATP (ATP concentration see Appendix) were added to 1× kinase buffer to form a 2.5× substrate solution.
(§7) 10 μl of 2.5× substrate solution was added to the 384-well reaction plate and centrifuged at 1000 rpm for 1 minute.
(§8) • (1) The plate was incubated at 28° C. for 60 minutes (Biochemical incubator model: SPX-100B-Z). • (2) 30 μl of stop solution was added to the 384-well reaction plate to terminate the reaction and centrifuged at 1000 rpm for 1 minute.
(§9) The data of conversion rate was read on Caliper EZ Reader II.
(§10) • 1) The conversion rate data was copied from Caliper EZ Reader II. • 2) The conversion rate was converted to inhibition rate data, where max refers to the conversion rate of the DMSO control and min refers to the conversion rate of the no enzyme activity control.
(§11) [formula] • 3) Fitting of IC50 values using XLFit excel add-in version 5.4.0.8

[4] = biological target: T2, KIT (Homo sapiens, UniProt P10721); assay: Kinase activity, Mobility Shift Assay; type: biochemical
T2 construct: purchased eurofins 14-559M
T2 sequence (P10721 26-976): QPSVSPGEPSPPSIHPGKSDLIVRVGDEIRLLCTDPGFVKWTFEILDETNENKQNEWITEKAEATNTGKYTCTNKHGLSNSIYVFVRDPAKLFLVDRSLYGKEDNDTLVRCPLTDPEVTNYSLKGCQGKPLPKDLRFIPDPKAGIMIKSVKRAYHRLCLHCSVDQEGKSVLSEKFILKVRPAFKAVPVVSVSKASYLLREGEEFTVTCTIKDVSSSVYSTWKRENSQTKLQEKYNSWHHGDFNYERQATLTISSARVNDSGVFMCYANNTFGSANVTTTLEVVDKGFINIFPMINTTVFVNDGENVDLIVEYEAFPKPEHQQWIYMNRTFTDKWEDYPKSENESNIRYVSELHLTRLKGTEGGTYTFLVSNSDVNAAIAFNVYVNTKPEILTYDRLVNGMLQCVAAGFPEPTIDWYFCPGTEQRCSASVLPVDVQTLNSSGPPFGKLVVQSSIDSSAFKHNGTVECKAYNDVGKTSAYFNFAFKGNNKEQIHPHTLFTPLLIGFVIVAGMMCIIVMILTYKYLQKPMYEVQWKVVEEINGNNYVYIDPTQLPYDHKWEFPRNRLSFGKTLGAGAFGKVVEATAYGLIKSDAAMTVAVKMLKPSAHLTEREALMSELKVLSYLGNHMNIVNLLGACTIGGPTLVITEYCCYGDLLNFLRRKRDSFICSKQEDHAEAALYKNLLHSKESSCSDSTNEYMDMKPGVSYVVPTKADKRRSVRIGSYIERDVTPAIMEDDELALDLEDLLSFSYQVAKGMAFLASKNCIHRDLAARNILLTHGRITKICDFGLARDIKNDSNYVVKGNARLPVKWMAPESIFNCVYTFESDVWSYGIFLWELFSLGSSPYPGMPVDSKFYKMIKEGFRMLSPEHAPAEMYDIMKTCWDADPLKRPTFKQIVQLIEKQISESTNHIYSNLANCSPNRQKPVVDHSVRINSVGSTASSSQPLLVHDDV
Procedure: as §1, §2, §3, §4, §5, §6, §7, §8, §9, §10, §11

[5] = biological target: T3, AXL (Homo sapiens, UniProt P30530); assay: Kinase activity, Mobility Shift Assay; type: biochemical
T3 construct: purchased Carna 08-107
T3 sequence (P30530 26-894): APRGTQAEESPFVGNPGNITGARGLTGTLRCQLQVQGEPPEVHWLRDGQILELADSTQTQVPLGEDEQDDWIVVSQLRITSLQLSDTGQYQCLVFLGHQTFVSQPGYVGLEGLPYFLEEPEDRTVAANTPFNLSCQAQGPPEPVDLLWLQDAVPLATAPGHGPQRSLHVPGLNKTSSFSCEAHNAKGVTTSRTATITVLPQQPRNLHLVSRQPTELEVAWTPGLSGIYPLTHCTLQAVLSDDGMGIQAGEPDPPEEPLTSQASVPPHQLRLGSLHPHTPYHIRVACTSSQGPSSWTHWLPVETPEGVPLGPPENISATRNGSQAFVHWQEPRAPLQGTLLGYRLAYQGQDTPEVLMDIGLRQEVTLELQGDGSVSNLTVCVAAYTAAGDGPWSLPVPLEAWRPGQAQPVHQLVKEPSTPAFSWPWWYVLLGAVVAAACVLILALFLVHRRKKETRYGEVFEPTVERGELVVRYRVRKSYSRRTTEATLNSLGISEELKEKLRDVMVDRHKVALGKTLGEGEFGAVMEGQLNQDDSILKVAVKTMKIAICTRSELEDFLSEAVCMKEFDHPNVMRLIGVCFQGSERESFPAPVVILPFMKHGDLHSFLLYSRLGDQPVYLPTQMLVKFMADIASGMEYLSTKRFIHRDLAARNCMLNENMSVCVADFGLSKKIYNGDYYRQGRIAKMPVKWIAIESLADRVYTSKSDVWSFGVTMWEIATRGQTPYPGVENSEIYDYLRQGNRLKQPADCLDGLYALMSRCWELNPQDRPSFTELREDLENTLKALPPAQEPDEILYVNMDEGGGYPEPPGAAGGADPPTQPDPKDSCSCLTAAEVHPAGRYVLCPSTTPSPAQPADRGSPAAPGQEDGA
Procedure: as §1, §2, §3, §4, §5, §6, §7, §8, §9, §10, §11

[6] = biological target: T4, KDR(VEGFR2) (Homo sapiens, UniProt P35968); assay: Kinase activity, Mobility Shift Assay; type: biochemical
T4 construct: purchased Carna 08-191
Procedure: as §1, §2, §3, §4, §5, §6, §7, §8, §9, §10, §11

[7] = biological target: T5, PDGFRa (Homo sapiens, UniProt P16234); assay: Kinase activity, Mobility Shift Assay; type: biochemical
T5 construct: purchased BPS 40260
Procedure: as §1, §2, §3, §4, §5, §6, §7, §8, §9, §10, §11

[8] = biological target: T6, TRK-A (Homo sapiens, UniProt P04629); assay: Kinase activity, Mobility Shift Assay; type: biochemical
T6 construct: purchased Carna 08-186
T6 sequence (P04629 33-796): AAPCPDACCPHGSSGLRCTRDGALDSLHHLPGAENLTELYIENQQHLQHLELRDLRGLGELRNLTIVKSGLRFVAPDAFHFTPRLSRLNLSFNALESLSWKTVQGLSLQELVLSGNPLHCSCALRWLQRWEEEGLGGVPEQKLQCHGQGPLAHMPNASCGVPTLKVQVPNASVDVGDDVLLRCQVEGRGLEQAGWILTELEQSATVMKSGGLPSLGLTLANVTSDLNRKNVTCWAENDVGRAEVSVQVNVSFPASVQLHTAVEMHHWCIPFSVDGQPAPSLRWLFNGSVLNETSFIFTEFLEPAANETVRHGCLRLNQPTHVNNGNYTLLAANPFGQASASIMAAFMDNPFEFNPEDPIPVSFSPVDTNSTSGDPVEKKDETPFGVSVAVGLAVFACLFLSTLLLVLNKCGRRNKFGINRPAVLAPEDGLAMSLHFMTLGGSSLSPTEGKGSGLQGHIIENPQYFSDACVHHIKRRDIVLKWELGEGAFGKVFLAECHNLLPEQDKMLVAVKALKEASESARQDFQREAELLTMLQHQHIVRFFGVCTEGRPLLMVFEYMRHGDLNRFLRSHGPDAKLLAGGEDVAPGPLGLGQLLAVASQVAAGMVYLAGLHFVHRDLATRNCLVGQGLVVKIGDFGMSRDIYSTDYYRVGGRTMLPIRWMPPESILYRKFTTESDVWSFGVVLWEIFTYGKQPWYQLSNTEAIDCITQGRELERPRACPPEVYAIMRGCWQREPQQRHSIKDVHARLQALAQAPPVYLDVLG
Procedure: as §1, §2, §3, §4, §5, §6, §7, §8, §9, §10, §11

[9] = biological target: T7, MET (Homo sapiens, UniProt P08581); assay: Kinase activity, Mobility Shift Assay; type: biochemical
T7 construct: purchased Carna 08-151
T7 sequence (P08581 25-1390): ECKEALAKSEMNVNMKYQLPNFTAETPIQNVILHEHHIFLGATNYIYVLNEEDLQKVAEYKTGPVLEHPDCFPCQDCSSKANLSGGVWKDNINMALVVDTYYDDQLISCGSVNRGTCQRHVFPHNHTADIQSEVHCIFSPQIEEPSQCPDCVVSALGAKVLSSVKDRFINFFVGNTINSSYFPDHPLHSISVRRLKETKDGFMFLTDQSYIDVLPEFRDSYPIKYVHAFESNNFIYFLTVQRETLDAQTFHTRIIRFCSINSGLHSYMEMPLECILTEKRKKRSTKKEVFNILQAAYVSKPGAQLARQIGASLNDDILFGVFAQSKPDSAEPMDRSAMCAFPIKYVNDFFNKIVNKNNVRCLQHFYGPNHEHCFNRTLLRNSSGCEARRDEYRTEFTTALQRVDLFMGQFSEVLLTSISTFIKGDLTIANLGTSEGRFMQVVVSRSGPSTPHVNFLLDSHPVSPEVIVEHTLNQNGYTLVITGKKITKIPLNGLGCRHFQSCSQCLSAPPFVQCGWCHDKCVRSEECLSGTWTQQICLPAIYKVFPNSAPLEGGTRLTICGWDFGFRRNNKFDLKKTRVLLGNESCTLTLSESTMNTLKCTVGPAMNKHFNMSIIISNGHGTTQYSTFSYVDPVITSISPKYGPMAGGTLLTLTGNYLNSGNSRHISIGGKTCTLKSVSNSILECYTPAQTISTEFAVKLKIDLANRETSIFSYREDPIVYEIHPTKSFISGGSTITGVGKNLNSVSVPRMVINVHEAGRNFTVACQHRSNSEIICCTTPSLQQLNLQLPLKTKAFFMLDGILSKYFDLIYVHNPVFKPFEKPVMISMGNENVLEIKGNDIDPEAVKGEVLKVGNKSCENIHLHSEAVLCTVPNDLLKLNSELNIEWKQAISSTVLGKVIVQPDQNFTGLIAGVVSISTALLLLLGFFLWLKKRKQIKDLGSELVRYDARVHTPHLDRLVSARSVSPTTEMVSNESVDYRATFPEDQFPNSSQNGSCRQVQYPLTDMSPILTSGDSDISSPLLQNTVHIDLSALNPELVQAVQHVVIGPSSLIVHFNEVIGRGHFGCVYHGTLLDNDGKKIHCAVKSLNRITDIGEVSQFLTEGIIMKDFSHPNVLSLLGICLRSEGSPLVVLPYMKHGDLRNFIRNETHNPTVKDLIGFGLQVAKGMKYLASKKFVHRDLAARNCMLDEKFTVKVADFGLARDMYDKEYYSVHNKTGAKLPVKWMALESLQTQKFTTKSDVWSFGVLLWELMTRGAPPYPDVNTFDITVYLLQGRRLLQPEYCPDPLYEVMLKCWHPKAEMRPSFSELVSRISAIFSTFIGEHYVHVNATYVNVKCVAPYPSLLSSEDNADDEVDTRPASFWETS
Procedure: as §1, §2, §3, §4, §5, §6, §7, §8, §9, §10, §11

[10] = biological target: T8, TRK-B (Homo sapiens, UniProt Q16620); assay: Kinase activity, Mobility Shift Assay; type: biochemical
T8 construct: purchased Carna 08-187
T8 sequence (Q16620 32-822): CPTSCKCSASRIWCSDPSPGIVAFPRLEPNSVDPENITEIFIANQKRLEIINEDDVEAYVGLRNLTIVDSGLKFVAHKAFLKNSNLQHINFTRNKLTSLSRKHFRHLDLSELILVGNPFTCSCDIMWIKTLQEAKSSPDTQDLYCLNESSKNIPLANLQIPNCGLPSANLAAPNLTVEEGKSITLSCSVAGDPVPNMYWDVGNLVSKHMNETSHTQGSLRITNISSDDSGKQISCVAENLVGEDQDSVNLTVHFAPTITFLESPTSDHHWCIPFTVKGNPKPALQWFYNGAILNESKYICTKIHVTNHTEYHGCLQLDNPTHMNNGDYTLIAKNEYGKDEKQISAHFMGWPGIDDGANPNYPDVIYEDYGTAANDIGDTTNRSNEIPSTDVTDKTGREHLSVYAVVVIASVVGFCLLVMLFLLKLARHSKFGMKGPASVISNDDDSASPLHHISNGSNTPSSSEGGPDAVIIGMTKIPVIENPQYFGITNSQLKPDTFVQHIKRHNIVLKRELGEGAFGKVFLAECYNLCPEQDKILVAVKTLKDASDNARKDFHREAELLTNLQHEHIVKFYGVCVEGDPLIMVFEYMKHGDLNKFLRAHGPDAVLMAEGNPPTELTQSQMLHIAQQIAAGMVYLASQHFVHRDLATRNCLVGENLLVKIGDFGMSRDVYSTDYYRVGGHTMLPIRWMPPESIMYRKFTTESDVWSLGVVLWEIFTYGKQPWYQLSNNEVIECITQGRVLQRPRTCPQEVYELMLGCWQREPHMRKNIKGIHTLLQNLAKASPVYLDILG
Procedure: as §1, §2, §3, §4, §5, §6, §7, §8, §9, §10, §11

[11] = 25° C./60% RH, simulating factory packaging, 3 months
[12] = 25° C./60% RH, simulating factory packaging, 6 months

O=C(Nc1ccc(F)cc1)C1(C(=O)Nc2ccc(Oc3ccnc4cc(OCCCN5CCOCC5)c5c(c34)OCCO5)c(F)c2)CC1 [Example 2, N-(3-fluoro-4-((5-(3-morpholinopropoxy)-2,3-dihydro-[1,4]dioxano[2,3-f]quinolin-10-yl)oxy)phenyl)-N-(4-fluorophenyl)cyclopropane-1,1-dicarboxamide]
Appearance [1, 11]: Off-white
Content [1, 11]: 100.0%
Crystal form [1, 11]: No
Moisture [1, 11]: 0.31%
Total impurities [1, 11]: 0.38%
Appearance [1, 12]: Off-white
Content [1, 12]: 100.5%
Crystal form [1, 12]: No
Moisture [1, 12]: 0.59%
Total impurities [1, 12]: 0.36%
Appearance ([1]; Day 0): Off-white
Content ([1]; Day 0): 100.2%
Crystal form ([1]; Day 0): No
Moisture ([1]; Day 0): 0.53%
Total impurities ([1]; Day 0): 0.37%
Solubility (equilibrium) [2]: 5100 µg/mL
inhibition of the activity of RET (in words) [3]: effectively inhibit
inhibition of the activity of c-KIT (in words) [4]: effectively inhibit
inhibition of the activity of AXL (in words) [5]: effectively inhibit
inhibition of the activity of VEGFR-2 (in words) [6]: effectively inhibit
inhibition of the activity of PDGFRa (in words) [7]: effectively inhibit
inhibition of the activity of TRK-A (in words) [8]: effectively inhibit
inhibition of the activity of c-MET (in words) [9]: effectively inhibit
inhibition of the activity of TRK-B (in words) [10]: effectively inhibit
